This assay has as its system PC3 cells. Description: NAMPT Cell Proliferation Assay. The class given is cell-based. The settings on record: Homo sapiens, PC-3, 120 h, 5 days incubation, cell viability by Cell Titer Glo. In a few lines: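 Seeded at 500 cells/well in RPMI with 10% heat-inactivated FBS and left to attach overnight at 37° C, 5% CO2. Compounds were added as 10-fold dilutions […] for 5 days, then viability was read by CellTiter-Glo. IC50s came from sigmoidal fits of percent inhibition.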
For orientation: Cellular ATP, detected with luciferase, serves as a proxy for viable cell number.
Turning to `O=C(Nc1ccc(S(=O)(=O)C2CCN(C(=O)c3ccc(Cl)cc3)CC2)cc1)C1CN(c2cccnn2)C1` [Example 573, N-(4-{[1-(4-chlorobenzoyl)piperidin-4-yl]sulfonyl}phenyl)-1-(pyridazin-3-yl)azetidine-3-carboxamide], the concentration for half-maximal inhibition (IC50) (usually the concentration that gives 50% inhibition) came to 81.9 nM. In other words, the double-digit nanomolar range. As for `O=C(Nc1ccc(OC2CN(C(=O)Cc3ccc(F)cc3)C2)cc1)C1CN(c2ccnnc2)C1` [Example 203, N-[4-({1-[(4-fluorophenyl)acetyl]azetidin-3-yl}oxy)phenyl]-1-(pyridazin-4-yl)azetidine-3-carboxamide], the IC50 turned out to be 606 nM.

Turning to `CC(C)Cn1cc(-c2cc(C(=O)N[C@H]3CCN(c4cccnn4)C3)cs2)cn1` [Example 664, 5-[1-(2-methylpropyl)-1H-pyrazol-4-yl]-N-[(3S)-1-(pyridazin-3-yl)pyrrolidin-3-yl]thiophene-3-carboxamide], the IC50 was determined as 1150 nM. `O=C(Nc1ccc(C2CCN(C(=O)CC3CCCC3)CC2)cc1)C1CN(c2ccnnc2)C1` [Example 144, N-{4-[1-(cyclopentylacetyl)piperidin-4-yl]phenyl}-1-(pyridazin-4-yl)azetidine-3-carboxamide] displayed an IC50 of 18.4 nM. Compared with the last compound, the IC50 is about 63-fold lower. `CC(C)(C)OC(=O)N1CCC(c2ccc(C(=O)NC3CN(c4cccnn4)C3)cc2)CC1` [Example 314, tert-butyl 4-(4-{[1-(pyridazin-3-yl)azetidin-3-yl]carbamoyl}phenyl)piperidine-1-carboxylate] gave an IC50 of 621 nM. With `O=C(NCC(=O)N1CCC(c2ccc(NC(=O)[C@H]3CCN(c4cccnn4)C3)cc2)CC1)c1ccccc1` [Example 650, (3S)-N-{4-[1-(N-benzoylglycyl)piperidin-4-yl]phenyl}-1-(pyridazin-3-yl)pyrrolidine-3-carboxamide] the figure was 86.9 nM. Regarding `O=C(Nc1ccc(OC2CCN(C(=O)CC(F)(F)F)CC2)cc1)C1CN(c2ccnnc2)C1` [Example 268, 1-(pyridazin-4-yl)-N-(4-{[1-(3,3,3-trifluoropropanoyl)piperidin-4-yl]oxy}phenyl)azetidine-3-carboxamide], half-maximal inhibition (IC50) was put at 82.9 nM. The figure for `O=C(Nc1ccc(O[C@@H]2CCN(C(=O)c3ccc(Cl)cc3)C2)cc1)C1CN(c2ccnnc2)C1` [Example 465, N-(4-{[(3R)-1-(4-chlorobenzoyl)pyrrolidin-3-yl]oxy}phenyl)-1-(pyridazin-4-yl)azetidine-3-carboxamide] is 616 nM; for `O=C(Nc1ccc(O[C@H]2CCN(C(=O)c3ccccc3)C2)cc1)[C@H]1CCN(c2cccnn2)C1` [Example 824, (3S)—N-(4-{[(3S)-1-benzoylpyrrolidin-3-yl]oxy}phenyl)-1-(pyridazin-3-yl)pyrrolidine-3-carboxamide] it is 70.6 nM; for `O=C(Nc1ccc(C2CCN(C(=O)c3ccccc3Cl)CC2)cc1)[C@H]1CCN(c2cccnn2)C1` [Example 669, (3S)-N-{4-[1-(2-chlorobenzoyl)piperidin-4-yl]phenyl}-1-(pyridazin-3-yl)pyrrolidine-3-carboxamide] it is 1.88 nM. `Cc1ccc(N2CC(C(=O)Nc3ccc(C4CCN(C(=O)C(C)(C)C)CC4)cc3)C2)nn1` [Example 852, N-{4-[1-(2,2-dimethylpropanoyl)piperidin-4-yl]phenyl}-1-(6-methylpyridazin-3-yl)azetidine-3-carboxamide] gave an IC50 of 12.4 nM. `Cc1ccc(OCC(=O)N2CCC(c3ccc(NC(=O)C4CN(c5cccnn5)C4)cc3)CC2)cc1` [Example 398, N-(4-{1-[(4-methylphenoxy)acetyl]piperidin-4-yl}phenyl)-1-(pyridazin-3-yl)azetidine-3-carboxamide] had an IC50 of 8.19 nM. For `O=C(Nc1ccc(C2CCN(C(=O)c3ccoc3)CC2)cc1)C1CN(c2cccnc2)C1` [Example 104, N-{4-[1-(furan-3-ylcarbonyl)piperidin-4-yl]phenyl}-1-(pyridin-3-yl)azetidine-3-carboxamide], the midpoint of inhibition, the IC50, lay at 0.18 nM.

On to `O=C(Nc1ccc(OC2CCN(C(=O)c3cccc(F)c3)CC2)cc1)[C@H]1CCN(c2cccnn2)C1` [Example 798, (3S)-N-(4-{[1-(3-fluorobenzoyl)piperidin-4-yl]oxy}phenyl)-1-(pyridazin-3-yl)pyrrolidine-3-carboxamide], for which the concentration for half-maximal inhibition (IC50) was found to be 66.4 nM. Turning to `O=C(Nc1ccc(C2CCN(C(=O)c3ccc(F)cc3F)CC2)cc1)[C@H]1CCN(c2cccnn2)C1` [Example 692, (3S)-N-{4-[1-(2,4-difluorobenzoyl)piperidin-4-yl]phenyl}-1-(pyridazin-3-yl)pyrrolidine-3-carboxamide], the midpoint of inhibition, the IC50, lay at 4.23 nM. Compared with the last compound, the IC50 is about 16-fold lower.

`O=C(N[C@H]1CCN(c2cccnn2)C1)c1ccc(C2CCN(C(=O)c3ccccc3)CC2)s1` [Example 764, 5-(1-benzoylpiperidin-4-yl)-N-[(3S)-1-(pyridazin-3-yl)pyrrolidin-3-yl]thiophene-2-carboxamide] had an IC50 of 22.1 nM. With `O=C(Nc1ccc(C2CCN(CC3CCCCC3)CC2)cc1)C1CN(c2cccnc2)C1` [Example 86, N-{4-[1-(cyclohexylmethyl)piperidin-4-yl]phenyl}-1-(pyridin-3-yl)azetidine-3-carboxamide] the figure was 69.7 nM; with `O=C(Nc1ccc(S(=O)(=O)C2CCN(C(=O)c3cccc(C(F)(F)F)c3)CC2)cc1)C1CN(c2cccnn2)C1` [Example 584, 1-(pyridazin-3-yl)-N-[4-({1-[3-(trifluoromethyl)benzoyl]piperidin-4-yl}sulfonyl)phenyl]azetidine-3-carboxamide], 87.2 nM. With `O=C(Nc1ccc(O[C@@H]2CCN(C(=O)Cc3cc(F)cc(F)c3)C2)cc1)C1CN(c2cccnn2)C1` [Example 492, N-[4-({(3R)-1-[(3,5-difluorophenyl)acetyl]pyrrolidin-3-yl}oxy)phenyl]-1-(pyridazin-3-yl)azetidine-3-carboxamide] the figure was 3.73 nM. Compound `CC(C)(C)CC(=O)N1CCC(Oc2ccc(NC(=O)C3CN(c4ccnnc4)C3)cc2)CC1` [Example 260, N-(4-{[1-(3,3-dimethylbutanoyl)piperidin-4-yl]oxy}phenyl)-1-(pyridazin-4-yl)azetidine-3-carboxamide] displayed an IC50 of 74.6 nM. Against the preceding compound, the IC50 is about 20-fold higher. Take `O=C(Nc1ccc(O[C@@H]2CCN(C(=O)c3cccc(C(F)(F)F)c3)C2)cc1)C1CN(c2cccnn2)C1` [Example 495, 1-(pyridazin-3-yl)-N-[4-({(3R)-1-[3-(trifluoromethyl)benzoyl]pyrrolidin-3-yl}oxy)phenyl]azetidine-3-carboxamide]: the midpoint of inhibition, the IC50, lay at 7.06 nM. For the compound `CC(C)(C(=O)N1CCC(c2ccc(NC(=O)C3CN(c4cccnc4)C3)cc2)CC1)N1CCNCC1` [Example 610, N-(4-{1-[2-methyl-2-(piperazin-1-yl)propanoyl]piperidin-4-yl}phenyl)-1-(pyridin-3-yl)azetidine-3-carboxamide], the IC50 stood at 7.9 nM. The IC50 values of the last two compounds are within 1.5-fold of each other. The figure for `O=C(NCC(=O)N1CCC(c2ccc(NC(=O)C3CN(c4cccnn4)C3)cc2)CC1)c1ccco1` [Example 408, N-(4-{1-[N-(furan-2-ylcarbonyl)glycyl]piperidin-4-yl}phenyl)-1-(pyridazin-3-yl)azetidine-3-carboxamide] is 29.9 nM; for `O=C(Nc1ccc(S(=O)(=O)C2CCN(C(=O)CCC(F)(F)F)CC2)cc1)C1CN(c2cccnn2)C1` [Example 575, 1-(pyridazin-3-yl)-N-(4-{[1-(4,4,4-trifluorobutanoyl)piperidin-4-yl]sulfonyl}phenyl)azetidine-3-carboxamide] it is 269 nM.

For the origin of these results see patent US20130303509A1, “NAMPT INHIBITORS” (AbbVie Inc., priority 2012, published 2013).
